Values quoted from earlier work as cited in the PKSmart pharmacokinetics tables (Seal et al. 2025).
*1 amine or outer side, *2 acyl side, *3 side chain or, on linkers, in order; H or OH if unused. Where a SMILES comes first, the peptide text is derived from it. Bridges are numbered along the chain shown (N, C = ends). [ ]: non-standard residue; d: D form. The star is where a group is joined. ξ: configuration not given here. X1 = O=C1CC(C(=O)[*:2])N([*:1])CC1CS[C@@H]1CN2CCC1CC2; ξThr(3R)(O-yl) = C[C@@H](O[*:3])C(N[*:1])C(=O)[*:2]; ξNMePhe(4-NMe2) = CNC(Cc1ccc(N(C)C)cc1)C(=O)O; Picolinoyl(3-OH) = O=C(c1ncccc1O)*; pGlu = O=C1CC[CH](C(=O)O)N1; ξPhg = NC(C(=O)O)c1ccccc1; Thz = O=C(O)[CH]1CSCN1; ξAbu = CCC(N)C(=O)O; ξP = O=C(O)C1CCCN1

Assay: Lombardo, Berellini, Obach 2018, Drug Metab Dispos 46:1466, doi 10.1124/dmd.118.082966
Conditions: human; for MRT / Vd / clearance / half-life: in vivo, iv; for fraction unbound: plasma

Structure (SMILES) | MRT [h] | Vd [L/kg] | clearance [mL/min/kg] | half-life [h] | fraction unbound
Cc1cnc(C(=O)NC2CCCCC/C=C\[C@@H]3C[C@@]3(C(=O)NS(=O)(=O)C3CC3)NC(=O)C3C[C@@H](Oc4nc5ccccc5c5ccccc45)CN3C2=O)cn1 (some centres not stated) | 3.96 | 1.37 | 5.74 | 8.71 | 0.022
COC(=O)C1=C(C)NC(C)=C(C(=O)OC(C)C)C1c1cccc2nonc12 (configuration not stated) | 1 | 1.5 | 26 | 3.3 | 0.04
Cc1ccc(N(CC2=NCCN2)c2cccc(O)c2)cc1 | – | – | 42 | 2.5 | –
C/C=C(/C)C(=O)O[C@H]1[C@H](OC(C)=O)[C@]2(CO)[C@H](O)C[C@]3(C)C(=CC[C@@H]4[C@@]5(C)CC[C@H](O[C@@H]6OC(C(=O)O)[C@@H](O[C@@H]7O[C@H](CO)[C@@H](O)[C@H](O)[C@H]7O)[C@H](O)[C@H]6O[C@@H]6O[C@H](CO)[C@@H](O)[C@H](O)[C@H]6O)[C@](C)(CO)[C@@H]5CC[C@]43C)[C@@H]2CC1(C)C (some centres not stated) | 1.5 | 0.23 | 2.55 | 1.8 | –
O=C1CCC(C(=O)N2CSCC2C(=O)O)N1 (configuration not stated) ([pGlu]-[Thz]-OH; configuration not given here) | 4.5 | 0.31 | 1.16 | 3.8 | 0.96
Cc1cnc(NCCCN(C)C)c2c1[nH]c1ccc3cc(O)ccc3c12 | 11 | 11 | 18 | 19 | –
O=C1CN=C(c2ccccc2Cl)c2cc(Br)ccc2N1 | 28.3 | 0.089 | 0.05 | 14.9 | –
O=C(c1ccc(OCCN2CCCCC2)cc1)c1c(-c2ccc(O)cc2)sc2cc(O)ccc12 | 11.6 | 7.5 | – | 12.1 | 0.05
CC(=O)N[C@H]1[C@H]([C@H](O)[C@H](O)CO)OC(C(=O)O)=C[C@@H]1NC(=N)N | 2.4 | 0.23 | 1.6 | 1.7 | –
COc1cc([S+](C)O)ccc1-c1nc2ncccc2[n-]1 (configuration not stated) | 1 | 0.62 | 10 | 0.8 | 0.41
CC(C)NCC(O)c1ccc(O)c(O)c1 (configuration not stated) | 0.43 | 1.5 | 56 | 0.41 | 0.71
N=C(N)c1ccc(OCCCCCOc2ccc(C(=N)N)cc2)cc1 | 12 | 53 | 74 | 25 | 0.09
CCOC(=O)C1(c2ccccc2)CCN(CCC(O)c2ccccc2)CC1 (configuration not stated) | 4.32 | 5.7 | 22 | 3.22 | –
C[C@@H](NCCc1ccc(O)cc1)[C@@H](O)c1ccc(O)cc1 | 2.4 | 4.4 | 31 | 2.6 | 0.64
CC(C)CC(NC(=O)C(CCc1ccccc1)NC(=O)CN1CCOCC1)C(=O)NC(Cc1ccccc1)C(=O)NC(CC(C)C)C(=O)[C@@]1(C)CO1 (some centres not stated) | 0.05 | 0.13 | 39.5 | 1.1 | 0.02
COc1cc(Cc2cnc(N)nc2N)c2cc(Cc3c(C(=O)N(C)C)[nH]c4ccc(Cl)cc34)oc2c1OC | 11.3 | 5.06 | 7.49 | 44.5 | –
CCN[C@@H]1C[C@H](N)[C@@H](O[C@H]2OC(CN)=CC[C@H]2N)[C@H](O)[C@H]1O[C@H]1OC[C@](C)(O)[C@H](NC)[C@H]1O | 2.2 | 0.073 | 0.55 | 3.2 | 1
N=C(N)N=c1[nH]c(CSCCC(=N)NS(N)(=O)=O)cs1 | 3 | 1.2 | 6.6 | 2.8 | 0.84
CS(=O)(=O)OC[C@H](O)[C@@H](O)COS(C)(=O)=O | 2 | 0.59 | 4.9 | 1.83 | –
CCC1NC(=O)C(NC(=O)c2ncccc2O)[C@@H](C)OC(=O)C(c2ccccc2)NC(=O)C2CC(=O)C(CS[C@@H]3CN4CCC3CC4)CN2C(=O)C(Cc2ccc(N(C)C)cc2)N(C)C(=O)C2CCCN2C1=O (stereo partly drawn) ({Picolinoyl(3-OH)}-[ξThr(3R)(O-yl)][ξAbu][ξP][ξNMePhe(4-NMe2)][X1][ξPhg]; ester 1-C) | 0.7 | 0.67 | 16 | 0.87 | 0.34
O=P(O)(O)C(NC1CCCCCC1)P(=O)(O)O | 1.85 | 0.24 | 2.16 | 1.82 | 0.9
CC#CCn1c(N2CCC[C@@H](N)C2)nc2c1c(=O)n(Cc1nc(C)c3ccccc3n1)c(=O)n2C | 140 | 16 | 1.9 | 129 | –
CNC(=O)C(c1ccccc1)N1CCc2cc(OC)c(OC)cc2[C@@H]1CCc1ccc(C(F)(F)F)cc1 (some centres not stated) | 15.9 | 9.75 | 10.2 | 34.3 | –
Cc1nc(C#Cc2ccnc(Cl)c2)c(C)n1-c1ccc(F)cc1 | 57.4 | 9.7 | 2.8 | 78.9 | 0.01
Cc1cccc(Cl)c1C(=O)NC(Cc1ccc(NC(=O)c2c(Cl)cncc2Cl)cc1)C(=O)O (configuration not stated) | 1.3 | 0.3 | 3.7 | 3.3 | 0.1
